# Measurements: patent US20230416227A1, “PLASMA KALLIKREIN INHIBITORS” (Merck Sharp & Dohme LLC, priority 2020, published 2023)
# Assays:
# Human plasma kallikrein = target: T1, Human plasma kallikrein (Homo sapiens, UniProt P03952); assay: Plasma Kallikrein Assay; type: biochemical; details: purified Human plasma kallikrein 0.5 nM, substrate Acetyl-K-P-R-AFC, pH 7.4
# T1 construct: yields a heavy chain (371 amino acids) and a light chain (248 amino acids); purchased Enzyme Research Laboratories
# human factor XIa = human factor XIa (Homo sapiens, UniProt P03951); assay: Factor XIa Assay; type: biochemical; details: human factor XIa 0.04 nM, substrate GPR-AFC, 30 min pre-incubation at 25° C., pH 7.4; read-out: FXIa IC50
# Chain of human factor XIa (P03951 388-625 limits assumed): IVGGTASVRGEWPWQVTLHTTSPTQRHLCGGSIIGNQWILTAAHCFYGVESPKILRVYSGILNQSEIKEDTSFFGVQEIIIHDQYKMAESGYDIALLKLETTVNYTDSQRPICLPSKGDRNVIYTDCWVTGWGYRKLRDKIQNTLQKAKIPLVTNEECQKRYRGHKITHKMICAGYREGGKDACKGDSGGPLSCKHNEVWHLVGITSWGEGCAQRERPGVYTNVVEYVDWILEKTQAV
# Chain of human factor XIa (P03951 19-387 partner limits assumed): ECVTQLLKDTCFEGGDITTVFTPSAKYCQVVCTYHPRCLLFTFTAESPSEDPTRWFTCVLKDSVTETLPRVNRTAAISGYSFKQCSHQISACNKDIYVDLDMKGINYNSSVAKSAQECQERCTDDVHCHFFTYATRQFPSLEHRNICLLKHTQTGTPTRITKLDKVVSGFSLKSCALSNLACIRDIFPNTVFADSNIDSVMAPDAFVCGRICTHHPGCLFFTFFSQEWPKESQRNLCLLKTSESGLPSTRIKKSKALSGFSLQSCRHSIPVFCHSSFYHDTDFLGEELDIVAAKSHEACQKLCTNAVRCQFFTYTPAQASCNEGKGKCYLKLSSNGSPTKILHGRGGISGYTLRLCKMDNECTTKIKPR
# T1 sequence (P03952 391-638 limits assumed): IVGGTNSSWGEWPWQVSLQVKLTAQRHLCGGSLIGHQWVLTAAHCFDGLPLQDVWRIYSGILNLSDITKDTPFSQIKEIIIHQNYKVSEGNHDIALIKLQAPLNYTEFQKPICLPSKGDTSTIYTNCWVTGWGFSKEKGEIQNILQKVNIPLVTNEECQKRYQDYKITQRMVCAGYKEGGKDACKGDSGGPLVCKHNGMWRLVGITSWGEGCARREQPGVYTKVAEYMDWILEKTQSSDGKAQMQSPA
# T1 sequence (P03952 20-390 partner limits assumed): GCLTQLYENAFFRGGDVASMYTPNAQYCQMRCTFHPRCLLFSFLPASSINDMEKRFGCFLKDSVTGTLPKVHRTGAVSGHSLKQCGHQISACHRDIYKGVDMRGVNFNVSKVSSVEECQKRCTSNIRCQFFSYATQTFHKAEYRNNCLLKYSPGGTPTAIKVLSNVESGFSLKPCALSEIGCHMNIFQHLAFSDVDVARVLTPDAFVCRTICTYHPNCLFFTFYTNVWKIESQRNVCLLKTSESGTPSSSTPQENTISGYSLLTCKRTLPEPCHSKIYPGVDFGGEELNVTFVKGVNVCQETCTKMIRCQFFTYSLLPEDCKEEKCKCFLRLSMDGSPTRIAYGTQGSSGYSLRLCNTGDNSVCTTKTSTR
SMILES,IC50 (Human plasma kallikrein) [nM],IC50 (human factor XIa) [nM]
"COc1ccc(C(F)F)c(-c2cncc(C(=O)Nc3cnn(Cc4cnc(N5CCC5)nc4)c3)n2)c1F [Example 208, N-(1-((2-(Azetidin-1-yl)pyrimidin-5-yl)methyl)-1H-pyrazol-4-yl)-6-(6-(difluoromethyl)-2-fluoro-3-methoxyphenyl)pyrazine-2-carboxamide]",33.9,827
"C[C@@H](F)CN(C)CC1CCCN1c1ncc(Cn2cc(NC(=O)c3cncc(-c4c(C(F)F)ccc(Cl)c4F)n3)cn2)cn1 (stereo partly drawn) [Example 151, 6-(3-Chloro-6-(difluoromethyl)-2-fluorophenyl)-N-(1-((2-(2-((((R)-2-fluoropropyl)(methyl)amino)methyl)pyrrolidin-1-yl)pyrimidin-5-yl)methyl)-1H-pyrazol-4-yl)pyrazine-2-carboxamide]",1,7720
"C[C@@H](c1cnc(N2C[C@@H]3C[C@@H]3[C@@H]2CO)nc1)n1cc(NC(=O)c2cncc(-c3c(C(F)F)ccc(Cl)c3F)n2)cn1 (single isomer, unassigned) [Example 71, 6-(3-Chloro-6-(difluoromethyl)-2-fluorophenyl)-N-(1-((S or R)-1-(2-((1S,2R,5R or 1R,2S,5S)-2-(hydroxymethyl)-3-azabicyclo[3.1.0]hexan-3-yl)pyrimidin-5-yl)ethyl)-1H-pyrazol-4-yl)pyrazine-2-carboxamide]",2.5,2260
"CO[C@H]1CN(C[C@@H]2CCN2c2ncc(C(C)n3cc(NC(=O)c4cncc(-c5c(C(F)F)ccc(Cl)c5F)n4)cn3)cn2)C[C@@H]1O (stereo partly drawn) [Example 165, 6-(3-Chloro-6-(difluoromethyl)-2-fluorophenyl)-N-(1-(1-(2-((S)-2-(((3S,4S)-3-hydroxy-4-methoxypyrrolidin-1-yl)methyl)azetidin-1-yl)pyrimidin-5-yl)ethyl)-1H-pyrazol-4-yl)pyrazine-2-carboxamide]",1.4,4270
"CC(c1cnc(N2CCC2)nc1)n1cc(NC(=O)c2cncc(-c3cc(Cl)ccc3-n3cnnn3)n2)cn1 (single isomer, unassigned) [Example 59, (R or S)-N-(1-(1-(2-(Azetidin-1-yl)pyrimidin-5-yl)ethyl)-1H-pyrazol-4-yl)-6-(5-chloro-2-(1H-tetrazol-1-yl)phenyl)pyrazine-2-carboxamide]",1.8,372
"Cc1nc(C(C)n2cc(NC(=O)c3cncc(-c4c(C(F)F)ccc(Cl)c4F)n3)cn2)cnc1N1CCC1 (single isomer, unassigned) [Example 39, (S or R)-N-(1-(1-(5-(azetidin-1-yl)-6-methylpyrazin-2-yl)ethyl)-1H-pyrazol-4-yl)-6-(3-chloro-6-(difluoromethyl)-2-fluorophenyl)pyrazine-2-carboxamide]",1.3,478
"CS(=O)(=O)c1ccc(Cl)c(F)c1-c1cncc(C(=O)Nc2cnn(Cc3cnc(N4CCC4)nc3)c2)n1 [Example 207, N-(1-((2-(Azetidin-1-yl)pyrimidin-5-yl)methyl)-1H-pyrazol-4-yl)-6-(3-chloro-2-fluoro-6-(methylsulfonyl)phenyl)pyrazine-2-carboxamide]",17.2,675
"O=C(Nc1cnn(Cc2cnc(N3CCC3)c(F)c2)c1)c1cncc(-c2c(C(F)F)ccc(Cl)c2F)n1 [Example 12, N-(1-((6-(Azetidin-1-yl)-5-fluoropyridin-3-yl)methyl)-1H-pyrazol-4-yl)-6-(3-chloro-6-(difluoromethyl)-2-fluorophenyl)pyrazine-2-carboxamide]",6.2,3510
"CC(c1cnc(N2CC(F)(F)C2)nc1)n1cc(NC(=O)c2cncc(-c3c(C(F)F)ccc(Cl)c3F)n2)cn1 (stereo not shown) [Example 82, 6-(3-Chloro-6-(difluoromethyl)-2-fluorophenyl)-N-(1-(1-(2-(3,3-difluoroazetidin-1-yl)pyrimidin-5-yl)ethyl)-1H-pyrazol-4-yl)pyrazine-2-carboxamide]",9.3,6010
"CC(c1cnc(N2CC3(CC3)C2)nc1)n1cc(NC(=O)c2cncc(-c3c(C(F)F)ccc(Cl)c3F)n2)cn1 (stereo not shown) [Example 99, N-(1-(1-(2-(5-Azaspiro[2.3]hexan-5-yl)pyrimidin-5-yl)ethyl)-1H-pyrazol-4-yl)-6-(3-chloro-6-(difluoromethyl)-2-fluorophenyl)pyrazine-2-carboxamide]",29.8,3660
"CC(c1cnc(N2CCC2)cn1)n1cc(NC(=O)c2cncc(-c3c(C(F)F)ccc(Cl)c3F)n2)cn1 (single isomer, unassigned) [Example 30, (R or S)-N-(1-(1-(5-(azetidin-1-yl)pyrazin-2-yl)ethyl)-1H-pyrazol-4-yl)-6-(3-chloro-6-(difluoromethyl)-2-fluorophenyl)pyrazine-2-carboxamide]",7.8,2170
"CC(C)(O)CNC[C@@H]1[C@@H]2C[C@@H]2CN1c1ncc(Cn2cc(NC(=O)c3cncc(-c4c(C(F)F)ccc(Cl)c4F)n3)cn2)cn1 [Example 139, 6-(3-Chloro-6-(difluoromethyl)-2-fluorophenyl)-N-(1-((2-((1R,2S,5S)-2-(((2-hydroxy-2-methylpropyl)amino)methyl)-3-azabicyclo[3.1.0]hexan-3-yl)pyrimidin-5-yl)methyl)-1H-pyrazol-4-yl)pyrazine-2-carboxamide]",0.3,502
"C[C@H]1[C@@H](O)CCN1C[C@@H]1CCCN1c1ncc(Cn2cc(NC(=O)c3cncc(-c4c(C(F)F)ccc(Cl)c4F)n3)cn2)cn1 [Example 146, 6-(3-Chloro-6-(difluoromethyl)-2-fluorophenyl)-N-(1-((2-((S)-2-(((2S,3S)-3-hydroxy-2-methylpyrrolidin-1-yl)methyl)pyrrolidin-1-yl)pyrimidin-5-yl)methyl)-1H-pyrazol-4-yl)pyrazine-2-carboxamide]",0.6,7220
"C[C@@H](O)c1ncc(-c2c(C(F)F)ccc(Cl)c2F)nc1C(=O)Nc1cnn(Cc2cnc(N3CCC3)nc2)c1 (single isomer, unassigned) [Example 135]",2.8,120
"O=C(Nc1cnn(Cc2cnc(N3CCC3)nc2C(F)F)c1)c1cncc(-c2c(C(F)F)ccc(Cl)c2F)n1 [Example 19, N-(1-((2-(Azetidin-1-yl)-4-(difluoromethyl)pyrimidin-5-yl)methyl)-1H-pyrazol-4-yl)-6-(3-chloro-6-(difluoromethyl)-2-fluorophenyl)pyrazine-2-carboxamide]",14.6,4630
"Cc1nc(Cn2cc(NC(=O)c3cncc(-c4c(C(F)F)ccc(Cl)c4F)n3)cn2)cnc1N1CC(F)(F)C1 [Example 15, 6-(3-Chloro-6-(difluoromethyl)-2-fluorophenyl)-N-(1-((5-(3,3-difluoroazetidin-1-yl)-6-methylpyrazin-2-yl)methyl)-1H-pyrazol-4-yl)pyrazine-2-carboxamide]",8.1,3690
"O=C(Nc1cnn(Cc2ccc(N3CCC3)nc2)c1)c1cncc(-c2c(OC(F)F)ccc(Cl)c2F)n1 [Example 63, N-(1-((6-(Azetidin-1-yl)pyridin-3-yl)methyl)-1H-pyrazol-4-yl)-6-(3-chloro-6-(difluoromethoxy)-2-fluorophenyl)pyrazine-2-carboxamide]",17.3,5040
"C[C@@H](c1cnc(N2CCC2)nc1)n1cc(NC(=O)c2cncc(-c3c(C(F)F)ccc(Cl)c3F)n2)cn1 [Example 5, (S)-N-(1-(1-(2-(Azetidin-1-yl)pyrimidin-5-yl)ethyl)-1H-pyrazol-4-yl)-6-(3-chloro-6-(difluoromethyl)-2-fluorophenvl)pyrazine-2-carboxamide]",6.6,1350
"O=C(Nc1cnn([C@@H](CO)c2cnc(N3CCC3)nc2)c1)c1cncc(-c2c(C(F)F)ccc(Cl)c2F)n1 (single isomer, unassigned) [Example 6]",22.9,1690
"CC1(O)CN(C[C@@H]2CCCN2c2ncc(Cn3cc(NC(=O)c4cncc(-c5c(C(F)F)ccc(Cl)c5F)n4)cn3)cn2)C1 [Example 152, (S)-6-(3-Chloro-6-(difluoromethyl)-2-fluorophenyl)-N-(1-((2-(2-((3-hydroxy-3-methylazetidin-1-yl)methyl)pyrrolidin-1-yl)pyrimidin-5-yl)methyl)-1H-pyrazol-4-yl)pyrazine-2-carboxamide]",1,6020
"[2H]C(C)(c1cnc(N2CCC2)nc1)n1cc(NC(=O)c2cncc(-c3c(C(F)F)ccc(Cl)c3F)n2)cn1 (single isomer, unassigned) [Example 43, (R or S)-N-(1-(1-(2-(azetidin-1-yl)pyrimidin-5-yl)ethyl-1-d)-1H-pyrazol-4-yl)-6-(3-chloro-6-(difluoromethyl)-2-fluorophenyl)pyrazine-2-carboxamide]",19.5,1170
"CC(c1cnc(N2CC[C@H]2CN2CCC(O)CC2)nc1)n1cc(NC(=O)c2cncc(-c3c(C(F)F)ccc(Cl)c3F)n2)cn1 (stereo partly drawn) [Example 179, 6-(3-Chloro-6-(difluoromethyl)-2-fluorophenyl)-N-(1-(1-(2-((S)-2-((4-hydroxypiperidin-1-yl)methyl)azetidin-1-yl)pyrimidin-5-yl)ethyl)-1H-pyrazol-4-yl)pyrazine-2-carboxamide]",0.7,9430
"CN(CC1CCCN1c1ncc(Cn2cc(NC(=O)c3cncc(-c4c(C(F)F)ccc(Cl)c4F)n3)cn2)cn1)CC1(O)CC1 (single isomer, unassigned) [Example 140, (S or R)-6-(3-Chloro-6-(difluoromethyl)-2-fluorophenyl)-N-(1-((2-(2-((((1-hydroxycyclopropyl)methyl)(methyl)amino)methyl)pyrrolidin-1-yl)pyrimidin-5-yl)methyl)-1H-pyrazol-4-yl)pyrazine-2-carboxamide]",0.2,1290
